The structures appear in SMILES notation. The source made the active and inactive calls. No cut-off for these calls is given here.

The first assay concerns A549. In words: Induction of apoptosis in human A549 cells assessed as DNA fragmentation after 48 hrs by acridine orange staining. Format: functional, cell-based.
Conditions: not given
Regarding `C/C(=N\NC(=O)c1cc(-c2ccc(Cl)cc2)nn1Cc1ccc(C(C)(C)C)cc1)c1cc(Cl)ccc1O`, the result was Active.

The next assay deals with A549. In words: Induction of apoptosis in human A549 cells assessed as DNA fragmentation after 48 hrs by TUNEL assay. Format: functional, cell-based.
Conditions: not given
On to `C/C(=N\NC(=O)c1cc(-c2ccc(Cl)cc2)nn1Cc1ccc(C(C)(C)C)cc1)c1cc(Cl)ccc1O`, for which the result was Active.

Another assay relates to A549. In words: Induction of necrosis in human A549 cells assessed as LDH release at 1 uM after 24 to 48 hrs. Format: functional, cell-based.
Conditions: not given
Regarding `C/C(=N\NC(=O)c1cc(-c2ccc(Cl)cc2)nn1Cc1ccc(C(C)(C)C)cc1)c1cc(Cl)ccc1O`, the result was inactive.

For the next assay, the system named is A549. In words: Induction of apoptosis in human A549 cells assessed as cell shrinkage like morphological changes at 1 uM after 48 hrs by light microscopy.
Conditions: not given
It counts as functional, cell-based.
`C/C(=N\NC(=O)c1cc(-c2ccc(Cl)cc2)nn1Cc1ccc(C(C)(C)C)cc1)c1cc(Cl)ccc1O`: the result was Active.

For the next assay, the system named is A549. In words: Induction of necrosis in human A549 cells assessed as LDH release at 0.5 uM after 24 to 48 hrs. It counts as functional, cell-based.
Conditions: not given
Consider `C/C(=N\NC(=O)c1cc(-c2ccc(Cl)cc2)nn1Cc1ccc(C(C)(C)C)cc1)c1cc(Cl)ccc1O`, for which the outcome was inactive.

In another assay the test system is A549. In words: Growth inhibition of human A549 cells after 48 hrs by MTT assay.
Conditions: not given
It counts as functional, cell-based.
Regarding `COc1ccc(-c2cc(C(=O)N/N=C(\C)c3cc(Cl)cc(Cl)c3O)n(Cc3ccc(C(C)(C)C)cc3)n2)cc1`, the Activity result is “Dose-dependent effect”.
`C/C(=N\NC(=O)c1cc(-c2ccccc2)nn1Cc1ccc(C(C)(C)C)cc1)c1cc(C)ccc1O`: the Activity entry was “Dose-dependent effect”.
The same measure, in the same setting: the result for `C/C(=N\NC(=O)c1cc(-c2ccccc2)nn1Cc1ccc(C(C)(C)C)cc1)c1cc(Cl)ccc1O` reads “Dose-dependent effect”.
Regarding `C/C(=N\NC(=O)c1cc(-c2ccc(Cl)cc2)nn1Cc1ccc(C(C)(C)C)cc1)c1cc(Cl)cc(Cl)c1O`, the Activity result was “Dose-dependent effect”.
On to `C/C(=N\NC(=O)c1cc(-c2ccc(Cl)cc2)nn1Cc1ccc(C(C)(C)C)cc1)c1cc(Cl)ccc1O`, for which the Activity entry is “Dose-dependent effect”.
Still for that read-out and setting: the result for `COc1ccc(-c2cc(C(=O)N/N=C(\C)c3cc(C)ccc3O)n(Cc3ccc(C(C)(C)C)cc3)n2)cc1` reads “Dose-dependent effect”.
On the same count and under the same terms, the value for `COc1ccc(-c2cc(C(=O)N/N=C(\C)c3cc(Cl)ccc3O)n(Cc3ccc(C(C)(C)C)cc3)n2)cc1` was “Dose-dependent effect”.
In the case of `C/C(=N\NC(=O)c1cc(-c2ccccc2)nn1Cc1ccc(C(C)(C)C)cc1)c1cc(Cl)cc(Cl)c1O`, the Activity entry is “Dose-dependent effect”.
With `C/C(=N\NC(=O)c1cc(-c2ccc(Cl)cc2)nn1Cc1ccc(C(C)(C)C)cc1)c1cc(C)ccc1O`, the Activity entry is “Dose-dependent effect”.

The assay is the same for the next values; noted with them: A549, 48 h.
Take `COc1ccc(-c2cc(C(=O)N/N=C(\C)c3cc(Cl)cc(Cl)c3O)n(Cc3ccc(C(C)(C)C)cc3)n2)cc1`: the IC50 was 2.08 µM.
The molecule `C/C(=N\NC(=O)c1cc(-c2ccccc2)nn1Cc1ccc(C(C)(C)C)cc1)c1cc(C)ccc1O` yielded an IC50 of 6.1 µM.
Molecule `C/C(=N\NC(=O)c1cc(-c2ccccc2)nn1Cc1ccc(C(C)(C)C)cc1)c1cc(Cl)ccc1O` displayed a concentration for half-maximal inhibition (IC50) of 2.77 µM. This IC50 lies about 2.2-fold lower than the previous one.
Molecule `C/C(=N\NC(=O)c1cc(-c2ccc(Cl)cc2)nn1Cc1ccc(C(C)(C)C)cc1)c1cc(Cl)cc(Cl)c1O` registered an IC50 of 7.9 µM.
Molecule `C/C(=N\NC(=O)c1cc(-c2ccc(Cl)cc2)nn1Cc1ccc(C(C)(C)C)cc1)c1cc(Cl)ccc1O` displayed an IC50 of 0.28 µM.
In the case of `COc1ccc(-c2cc(C(=O)N/N=C(\C)c3cc(C)ccc3O)n(Cc3ccc(C(C)(C)C)cc3)n2)cc1`, the half-maximal inhibitory concentration (IC50) is 10.4 µM.
As for `COc1ccc(-c2cc(C(=O)N/N=C(\C)c3cc(Cl)ccc3O)n(Cc3ccc(C(C)(C)C)cc3)n2)cc1`, half-maximal inhibition (IC50) was put at 9.62 µM.
Regarding `C/C(=N\NC(=O)c1cc(-c2ccccc2)nn1Cc1ccc(C(C)(C)C)cc1)c1cc(Cl)cc(Cl)c1O`, inhibition was half-maximal at 3.17 µM (IC50).
The same measure, in the same setting: the value for `C/C(=N\NC(=O)c1cc(-c2ccc(Cl)cc2)nn1Cc1ccc(C(C)(C)C)cc1)c1cc(C)ccc1O` was 2.49 µM.

The next assay concerns A549. In words: Induction of necrosis in human A549 cells assessed as LDH release at 0.1 uM after 24 to 48 hrs. Format: functional, cell-based.
Conditions: not given
For `C/C(=N\NC(=O)c1cc(-c2ccc(Cl)cc2)nn1Cc1ccc(C(C)(C)C)cc1)c1cc(Cl)ccc1O`, the result was inactive.

The values are drawn from ChEMBL document CHEMBL1152761, “Synthesis of novel substituted pyrazole-5-carbohydrazide hydrazone derivatives and discovery of a potent apoptosis inducer in A549 lung cancer cells” (Bioorg Med Chem, 2009).
